Experimental data reported in US9464064B2, “HCV helicase inhibitors and methods of use thereof” (University of Kansas, priority 2011, dated 2016).
Positions of bridges follow the written chain, without caps; N, C: chain ends. Non-standard residues stand in square brackets, D forms with d. Residues, ends and D or L forms follow the SMILES beside them. ξ: configuration not given here. *: point of attachment. ξNMePhe(4-NMe2) = CNC(Cc1ccc(N(C)C)cc1)C(=O)O; Picolinoyl(3-OH) = O=C(c1ncccc1O)*; ξPip(4-oxo) = O=C1CCNC(C(=O)O)C1; Phg = N[CH](C(=O)O)c1ccccc1; Abu = CC[CH](N)C(=O)O

Target: T1, HCV NS3 helicase NS3h_1b(con1) (Hepatitis C virus genotype 1b, UniProt Q9WMX2)
T1 construct: truncated C-terminally His-tagged NS3 proteins lacking the N-terminal protease, called NS3h; His-tag (C); made in house
Assay: MBHA screen of NCI mechanistic set library at 20 μM (percent inhibition, compound interference)
Format: biochemical
Conditions: compounds at 20 μM; for Inh. (%) (Inhibition): calculated from Equation 1
Outline: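 Molecular beacon-based DNA unwinding assay; compounds screened at 20 μM in triplicate, with DMSO-only negative and 500 nM dT20 positive controls. Fluorescence (ex 643/em 670 nm) was read before and 30 min after adding ATP to 1 mM. Percent inhibition came from the change relative to DMSO controls; interference from pre-ATP fluorescence versus DMSO controls.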

[1] = MBHA with DNA substrate, assay interference calculated with Equation 2
[2] = assay interference calculated with Equation 2 (fluorescence vs DMSO-only controls before ATP)

T1 sequence (Q9WMX2 1192-1657): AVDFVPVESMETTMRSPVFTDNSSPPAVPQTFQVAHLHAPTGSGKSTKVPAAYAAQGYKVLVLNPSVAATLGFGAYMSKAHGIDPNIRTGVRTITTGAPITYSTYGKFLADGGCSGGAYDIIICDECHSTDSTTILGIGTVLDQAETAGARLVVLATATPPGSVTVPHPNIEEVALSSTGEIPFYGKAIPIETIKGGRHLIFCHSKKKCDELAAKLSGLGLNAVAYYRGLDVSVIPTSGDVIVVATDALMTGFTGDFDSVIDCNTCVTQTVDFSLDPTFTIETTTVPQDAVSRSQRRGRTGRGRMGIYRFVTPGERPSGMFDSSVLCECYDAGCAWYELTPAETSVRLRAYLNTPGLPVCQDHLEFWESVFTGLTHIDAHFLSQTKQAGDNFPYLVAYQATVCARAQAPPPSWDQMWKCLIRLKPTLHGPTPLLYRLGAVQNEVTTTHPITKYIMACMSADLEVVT

Int.* (Ratio) (Interference) [1]	Inh. (%) (Inhibition) (MBHA with DNA substrate)	Inh. (%) (Inhibition) (MBHA with a DNA substrate)	Int.* (Ratio) (Interference) [2]	Structure (SMILES)
0.98 Ratio	−11.6%	–	–	Cl.Cl.Nc1ccc(OCCCc2c(-c3ccccc3)nc(N)[nH]c2=O)cc1 [Compound 100856]
1.08 Ratio	1.0%	–	–	Nc1ncnc2c(C3OC(CO)C(O)C3O)[nH]nc12 (stereo not drawn) [Compound 102811]
0.76 Ratio	−11.4%	–	–	COC(=O)[C@@H]1c2cc3c(c(O)c2[C@@H](OC)C[C@@]1(C)O)C(=O)c1c(O)cc2c(c1C3=O)O[C@@H]1O[C@@]2(C)[C@H](O)[C@@H](N(C)C)[C@@H]1O [Compound 102815]
0.92 Ratio	−11.6%	–	–	CCC1CN2CCc3cc(OC)c(OC)cc3C2CC1CC1c2cc(OC)c(OC)cc2CCN1C(=O)C1CCCN1C(=O)OCc1ccccc1 (stereo not drawn) [Compound 103248]
–	–	−42.7%	0.92 Ratio	CC1(C)N=C(N)N=C(N)N1c1ccc(CCCCc2ccc(Cl)cc2Cl)cc1 [Compound 104129]
1.00 Ratio	−9.5%	–	–	COc1ccc(C(=O)/C(Br)=C\C(=O)O)cc1 [Compound 104801]
0.89 Ratio	0.4%	–	–	Nc1nc(Cl)nc2c1ncn2[C@H]1C[C@H](O)[C@@H](CO)O1 [Compound 105014]
1.14 Ratio	2.6%	–	–	NC1=C(Br)C(=O)c2ncccc2C1=O [Compound 105808]
0.93 Ratio	−1.1%	–	–	COC(=O)c1ccc(=O)c2nc3/c(=C/O)c(O)cc(=O)c3[nH]c12 [Compound 106995]
–	–	−6.0%	0.90 Ratio	CC(/C=C/C(O)=C1/C(=O)CNC1=O)=C\[C@@H](C)[C@H]1O[C@]2(C)O[C@@H](C(=O)[C@@H]3O[C@@]32C)[C@@H]1C [Compound 107067]
0.83 Ratio	0.0%	–	–	CO[C@@H]1[C@@H](OC(=O)c2ccc(C)[nH]2)[C@@H](O)[C@H](Oc2ccc3c(O)c(NC(=O)c4c[nH]c(C(=O)Nc5c(O)c6ccc(O[C@@H]7OC(C)(C)[C@H](OC)[C@@H](OC(=O)c8ccc(C)[nH]8)[C@H]7O)c(C)c6oc5=O)c4C)c(=O)oc3c2C)OC1(C)C [Compound 107412]
0.92 Ratio	−9.3%	–	–	CCC1CN2CCc3cc(OC)c(OC)cc3C2CC1CC1c2cc(OC)c(OC)cc2CCN1C(=O)C(Cc1c[nH]c2ccccc12)NC(=O)OC(C)(C)C (stereo not drawn) [Compound 109350]
–	–	−26.9%	0.97 Ratio	N=C1C=C(N)C(=O)c2[nH]c(=O)ccc21 [Compound 111041]
1.16 Ratio	6.3%	–	–	CCOC(=O)c1cc2c(OC)cc(OC)cc2oc1=O [Compound 111119]
–	–	−29.5%	1.00 Ratio	C=C(C)[C@@H]1CC[C@]2(C(=O)O)CC[C@]3(C)[C@H](CC[C@@H]4[C@@]5(C)CC[C@H](O)C(C)(C)[C@@H]5CC[C@]43C)[C@@H]12 [Compound 113090]
–	–	7.3%	0.94 Ratio	CC(C)(O)CCC(O)C(C)(O)C1CCC2(O)C3=CC(=O)C4(O)CC(O)C(O)CC4(C)C3CCC12C.CC(C)(O)CCC(O)C(C)(O)C1CCC2(O)C3=CC(=O)C4CC(O)C(O)CC4(C)C3CCC12C (stereo not drawn) [Compound 115493]
1.02 Ratio	−12.6%	–	–	CCOC(=O)Cc1c(C)c2cc(C(=O)c3ccccc3)c(O)cc2oc1=O [Compound 115538]
0.92 Ratio	−1.8%	–	–	Cc1ccc([S+](c2ccccc2)c2cc(C)ccc2C)cc1.O=C(OC(C(=O)[O-])C(OC(=O)c1ccccc1)C(=O)O)c1ccccc1 (stereo not drawn) [Compound 116693]
1.00 Ratio	1.4%	–	–	Cc1ccc2[nH]c(O)c(N=Nc3ccccc3[N+](=O)[O-])c2c1 [Compound 117915]
0.89 Ratio	14.2%	–	–	Cc1ccc(C)c2c(N=Nc3ccccc3[N+](=O)[O-])c(O)[nH]c12 [Compound 118732]
–	–	−5.2%	0.96 Ratio	Cc1ccc(Cl)c2c(N=Nc3ccccc3[N+](=O)[O-])c(O)[nH]c12 [Compound 118735]
–	–	10.6%	1.01 Ratio	CNc1nc(N(C)C)nc(N(C)C)n1 [Compound 118742]
1.12 Ratio	−9.7%	–	–	O=C1C(=O)c2ccccc2C(O)=C1CC=C(Cl)Cl [Compound 126771]
–	–	−4.3%	0.99 Ratio	COc1ccc(-c2cc(=O)c3c(O)cc(O)cc3o2)cc1OC [Compound 128305]
–	–	12.0%	1.08 Ratio	CCC1=C(C[C@H]2NCCc3cc(OC)c(OC)cc32)C[C@H]2c3cc(OC)c(OC)cc3CCN2C1 [Compound 129414]
–	–	−22.9%	1.07 Ratio	COC1=C(N)C(=O)c2nc(C)ccc2C1=O [Compound 132493]

More lines, now with the values behind:

Structure (SMILES)	Int.* (Ratio) (Interference) [1]	Inh. (%) (Inhibition) (MBHA with DNA substrate)	Inh. (%) (Inhibition) (MBHA with a DNA substrate)	Int.* (Ratio) (Interference) [2]
[O-][Cl+3]([O-])([O-])[O-].c1ccc(-c2csc3c4ccccc4c4ccccc4[n+]23)cc1 [Compound 98904]	0.89 Ratio	41.2%	–	–
CN1CCC23c4ccccc4NC1C21CCN(C)C3Nc2ccccc21 [Compound 99016]	1.10 Ratio	−8.6%	–	–
O=c1ccc2ccc(CBr)cc2o1 [Compound 99027]	–	–	10.1%	0.93 Ratio
Cn1c(=O)[nH]c2nncnc2c1=O [Compound 99733]	1.02 Ratio	−17.9%	–	–
O=C1OC(c2ccccc2)=N/C1=C\c1ccc(N(CCCl)CCCl)cc1 [Compound 104117]	1.06 Ratio	−14.5%	–	–
Cc1ccc(N=Nc2c(O)ccc3ccccc23)cc1 [Compound 106296]	–	–	−5.2%	1.23 Ratio
CO[C@H]1Nc2c(ccc(C)c2O)C(=O)N2C=C(/C=C/C(N)=O)C[C@@H]12 [Compound 106408]	0.94 Ratio	22.7%	–	–
CC(C)CCCC(=O)CCCCCCC(=O)CCN(O)C(=O)C(N)CO.O=S(=O)(O)O (stereo not drawn) [Compound 106997]	0.96 Ratio	−2.2%	–	–
O=C1C=C2C=CC3CC2(O1)C1CCCCN31 (stereo not drawn) [Compound 107415]	0.97 Ratio	−15.2%	–	–
CN1CCCC2C(c3ccccc3)C(C3=NCCCC3)C(c3ccccc3)CC21.Cl (stereo not drawn) [Compound 109444]	–	–	7.2%	1.01 Ratio
Oc1[nH]c2ccccc2c1N=Nc1c(F)c(F)c(F)c(F)c1F [Compound 116535]	0.93 Ratio	5.9%	–	–
Cc1ccc2[c](c1)[Sn]([c]1ccccc1)([c]1ccccc1)[c]1cc(C)ccc1N2C [Compound 118030]	0.92 Ratio	−13.1%	–	–
S=C=NCc1ccccc1 [Compound 118976]	0.96 Ratio	13.9%	–	–
Cc1c2ccncc2c(C)c2c1sc1ccccc12 [Compound 119686]	–	–	8.9%	1.18 Ratio
N.N.[Cl][Pt][Cl] [Compound 119875]	0.83 Ratio	25.1%	–	–
CCCNC1=C(C)C(=O)C2=C(C1=O)[C@H](COC(N)=O)[C@]1(OC)[C@@H]3N[C@@H]3CN21 [Compound 123115]	–	–	−25.7%	0.96 Ratio
Cc1c(N)nc([C@H](CC(N)=O)NC[C@H](N)C(N)=O)nc1C(=O)N[C@H](C(=O)N[C@H](C)[C@@H](O)[C@H](C)C(=O)N[C@H](C(=O)NCCc1nc(-c2nc(C(=O)NCCC[S+](C)C)cs2)cs1)[C@@H](C)O)[C@@H](OC1OC(CO)C(O)C(O)C1OC1OC(CO)C(O)C(OC(N)=O)C1O)c1cnc[nH]1 (stereo partly drawn) [Compound 125066]	0.79 Ratio	15.8%	–	–
CC1=C\C(O)CC(=O)Cc2nc(co2)C(=O)N2CCC=C2C(=O)OC(C(C)C)C(C)/C=C/C(=O)NC/C=C\1.CCC1NC(=O)C(NC(=O)c2ncccc2O)C(C)OC(=O)C(c2ccccc2)NC(=O)C2CC(=O)CCN2C(=O)C(Cc2ccc(N(C)C)cc2)N(C)C(=O)C2CCCN2C1=O (stereo not drawn) [Compound 125176] ({Picolinoyl(3-OH)}-T[Abu]P[ξNMePhe(4-NMe2)][ξPip(4-oxo)][Phg]; ester 1-C; configuration not given here)	–	–	−20.2%	0.90 Ratio
c1ccc2c(c1)nnn1c3cnccc3nc21 [Compound 128734]	–	–	−3.1%	0.91 Ratio
CC(CN1CC(=O)NC(=O)C1)N1CC(=O)NC(=O)C1 (stereo not drawn) [Compound 129943]	–	–	−5.2%	1.13 Ratio
CC[C@](C)(O)C(=O)O[C@H]1C(=O)O[C@@H]2C[C@H]3C(C)=CC(=O)[C@@H](O)[C@]3(C)[C@H]3C4(O)OC[C@]32[C@@H]1[C@@H](C)[C@H]4O [Compound 132791]	–	–	8.2%	0.98 Ratio
Br.COC1CN(C)C(=Nc2cccc3ccccc23)S1 (stereo not drawn) [Compound 135996]	1.07 Ratio	−14.0%	–	–
